Experiment [1] concerns tyrosine aminotransferase (TAT). The experiment is described as follows: tyrosine aminotransferase (TAT) induction in HTC cells. In kind it is cell-based, rat. To be noted: Rattus norvegicus, Table 1, 24 or 48 hours, from 10^-6 M down, relative to dexamethasone = 1, read-out: Efficacy (DEX = 1) TAT. As to the method:
In this example, tyrosine aminotransferase (TAT) activity was determined by a spectrophotometric assay. This enzyme catalyzes the conversion of tyrosine to p-hydroxyphenylpyruvate. This example is a standard in vitro test for glucocorticoid activity.
Addition of base caused the conversion of p-hydroxyphenylpyruvate to p-hydroxybenzaldehyde, which was quantitatively measured by absorbance at 331 nm. HTC cells, the target cells for the compound tested were grown in DMEM+10% FCS. Subconfluent cell cultures were incubated with test compounds in 6 well Costar dishes for 24 or 48 hours. The cells were incubated in either serum-free DMEM or DMEM containing 10% FCS previously filtered over activated charcoal. The cells were harvested in PBS using a rubber policeman, then washed once in PBS by centrifugation and resuspended in a 0.3 ml lysis buffer of 10 mM Tris, 10 mM EDTA and 0.25M sucrose at pH 7.4. The cells were then lysed by three cycles of freeze-thawing using dry ice and a 37° C. waterbath and the cells debris was pelleted by centrifugation for 2 min at 12,000 9 in an Eppendorf centrifuge.
The supernatant was used for a protein determination using either E+K stain or BioRad protein assay kit and TAT activity. 0.1 ml TAT buffer having 50 mM KH2 PO4, 1 mM EDTA, 0.1 mM Dithiothereitol (DTT), and 5 mg/ml BSA at pH 7.6 and 0.1 ml cell extract were mixed in glass tubes. A prewarmed mixture of 200 parts of a 2.3 mg/ml tyrosine solution in 0.05M phosphate buffer, 100 parts 0.125M KH2 PO4, 10 parts of a 0.92 mg/ml and ketoglutarate solution and 1 part of a 0.04 mg/ml pyridoxalphosphate solution had been previously made up. […] of the prewarmed mixture was added to each tube and allowed to react at 37° C. for 15 min. The addition of 0.1 ml 7N […] stopped the reaction. The mixture was then immediately vortexed.
Aldehyde formation was allowed to proceed at 37° C. for 30 min. The amound of aldehyde formed was determined by UV spectroscopic means. Absorbance was read at 331 nm using a solution composed of 0.1 ml TAT buffer, 0.1 ml lysis buffer, 0.7 ml reaction mixture and 0.1 ml 7N KOH as a blank. Optical Density values are linearily corrected for protein content.
As the absolute amount of enzyme induction varies between experiments, results are expressed as percent of the maximal induction obtained with dexamethasone, which was run as a standard in each assay.
In this series, compounds were assayed from 10^-6 M down. Results are expressed in the TAT column of tables 1, and 2 as the induction ability of a compound as compared to dexamethasone; a compound may either be a partial inducer or a superinducer.

For experiment [2], the system named is Hamster Melanoma RPM1 1846 tumor cells. The experiment is described as follows: hamster cheek pouch (HCP) angiogenesis inhibition, 1846 tumor cell stimulus. In kind it is in vivo, Male Syrian Golden hamsters. The note with it: Table 1; 3×10^5 tumor cells; between 0.5 and 4 mg/kg s.c. daily; each number independent result, average of six animals. As to the method: Each compound of the series was also tested for anti-angiogenic activity by an in vivo test that measured vascularization in a hamster's cheek pouch in response to either an angiogenic polypeptide growth factor, epidermal growth factor (EGF) or an induced […].
(§1) In this example, the in vivo angiogenesis inhibition activity of etianic acid esters was tested. Male Syrian Golden hamsters, weighing between 120 g and 150 g were anaesthetized by intraperitoneal (I.P.) injection of a rodent anaesthetic mixture consisting of 50 mg/kg ketamine hydrochloride, 5 mg/kg xylazine and 1 mg/kg acepromazine. The left cheek pouch of each animal was everted with a pincet and pinned down to a plexiglass-rubber stage and observed through a Zeiss stereomicroscope. 10 μg of EGF or 3×10^5 Hamster Melanoma RPM1 1846 tumor cells in 10 μl Cibachrome Blue agarose (Amicon) were injected subcutaneously in the left lower quadrant of the pouch with a Hamilton syringe.
(§2) The pouch was then reinserted and animals were kept under observation until recovered from anaesthesia.
The animals were dosed daily with one test compound, starting one day before stimulus injection and continuing until observation. The test compounds were dissolved in a minimum volume of ethanol and diluted in sterile phosphate buffer solution. […]
(§3) Either five days or twelve days after the EGF or tumor cell injection, animals were anaesthetized by I.P. injection of the rodent anaesthetic mixture. The pouch was everted on the stage and examined under the stereomicroscope. Pictures were taken with a 35 mm using Kodak Tungsten 50 professional films.
(§4) The following subjective scoring was used for evaluating the photographs:
(§5) 1: minimal branching of vessels in the vicinity of injection site.
(§6) 2: new vessels reach injection site, area involved is minimal (<50% of area surrounding injection site).
(§7) 3: many vessels reach and cross injection site, new vessels are tortuous, (>50% of area surrounding injection site).
(§8) 4: "full blown", many tortuous vessels, leakages, hemorrhages, 100% of area around injection site, invasion of new vessels into non-injected areas.
(§9) In the case of the tumor, tumor size was also determined. (See Table 4)
(§10) Results are expressed as the mean of the score. The results are shown in Tables 1 and 2 are percent inhibition of HCP Stimulus.

Experiment [3] has the same test system. The experiment is described as follows: Inhibition of tumor growth (2 week assay). Type of experiment: in vivo, Male Syrian Golden hamsters. The note with it: Table 3, dose 0.8 mg/kg. As to the method:
as §1, §2
The animals were dosed daily with one test compound, starting one day before stimulus injection and continuing until observation. The test compounds were dissolved in a minimum volume of ethanol and diluted in sterile phosphate buffer solution. Then between 0.5 and 4 mg/kg of the test compound was injected subcutaneously.
as §3, §4, §5, §6, §7, §8, §9, §10

Several values for one entry are separate records, joined by “and”; a condition that tells them apart may be missing. Equal entries are not always repeated.

On to `CCC(=O)O[C@]1(C(=O)OC)[C@@H](C)C[C@H]2[C@@H]3CCC4=CC(=O)C=C[C@]4(C)[C@@]3(F)[C@@H](O)C[C@@]21C` [compound 1], for which the Emax in experiment [1] was determined as 100%. In experiment [2], the “% Inhibition HCP Stimulus 1846” value came to 40%.
In the same order, the values of `CCC(=O)O[C@]1(C(=O)OC)[C@@H](C)C[C@H]2[C@@H]3CC(F)C4=C(F)C(=O)C=C[C@]4(C)[C@@]3(F)[C@@H](O)C[C@@]21C` (stereo partly drawn) [compound 3] are 150% and 70%.
`CCCC(=O)O[C@]1(C(=O)OC)[C@@H](C)C[C@H]2[C@@H]3CC(F)C4=CC(=O)C=C[C@]4(C)[C@@]3(F)[C@@H](O)C[C@@]21C` (stereo partly drawn) [compound 4]: the Emax in experiment [1] was found to be 100%. Besides, the “% Inhibition HCP Stimulus 1846” value in experiment [2] came out at 26%.
Turning to `CCC(=O)O[C@]1(C(=O)OC)[C@H](C)C[C@H]2[C@@H]3CC(F)C4=CC(=O)C=C[C@]4(C)[C@@]3(F)[C@@H](O)C[C@@]21C` (stereo partly drawn) [compound 7], in experiment [1], the Emax amounted to 200%.
With `CCC(=O)O[C@]1(C(=O)OC)[C@H](C)C[C@H]2[C@@H]3CC(F)C4=C(F)C(=O)C=C[C@]4(C)[C@@]3(F)[C@@H](O)C[C@@]21C` (stereo partly drawn) [compound 8], the Emax in experiment [1] amounted to 100%. For the same compound, the “% Inhibition HCP Stimulus 1846” value in experiment [2] is 41% and 58% and 75%.
In the case of `CCCC(=O)O[C@]1(C(=O)OC)[C@H](C)C[C@H]2[C@@H]3CC(F)C4=CC(=O)C=C[C@]4(C)[C@@]3(F)[C@@H](O)C[C@@]21C` (stereo partly drawn) [compound 9], the Emax in experiment [1] was 90%. Further, in experiment [3], the “Angiogenesis % Inh.” value was found to be 29% and the “Tumor area % (inhibition of tumor growth)” value was 86%. The compound also displayed an Angiogenesis score in experiment [3] (mean of score 0 (no new vessels) to 4 (full blown), untreated 3.1 [A], 2.9 [B]) of 2.2. Besides, the “Tumor area Mn (mm^2)” value in experiment [3] (untreated 40.7 ± 16.2 [A], 27.5 ± 15.3 [B]) turned out to be 5.7 ± 5.9 mm^2. Further, the “% Inhibition HCP Stimulus 1846” value in experiment [2] is reported as 32%.

(Values after patent US4599331A, “Etianic acids as antiangiogenics” (Syntex (U.S.A.) Inc., priority 1984, dated 1986).)
